Experimental data as given in ChEMBL document CHEMBL3297679, “Studies on molecular properties prediction, antitubercular and antimicrobial activities of novel quinoline based pyrimidine motifs” (Bioorg Med Chem Lett, 2014).
In brackets after ≈: the same amount, converted by molar mass.

tested on: Aspergillus niger; assay: Antifungal activity against Aspergillus niger MTCC 282 by conventional broth microdilution method; type: functional; details: not given

First: N#CCCSC1=NC(c2cccc(F)c2)=CC(c2cc3cc(Cl)ccc3nc2Cl)N1 (stereo unspecified)
Second: Cc1cccc(C2=CC(c3cc4cc(Cl)ccc4nc3Cl)NC(SCCC#N)=N2)c1 (stereo unspecified)
The MIC of the first is higher: over 1000 µg/mL for the first, 500 µg/mL (≈ 1100 µM) for the second.

Going from `N#CCCSC1=NC(c2ccc(F)cc2)=CC(c2cc3cc(Cl)ccc3nc2Cl)N1` (stereo unspecified) to `N#CCCSC1=NC(c2ccc([N+](=O)[O-])cc2)=CC(c2cc3cc(Cl)ccc3nc2Cl)N1` (stereo unspecified), the MIC rises from 1000 µg/mL (≈ 2190 µM) to over 1000 µg/mL.

Going from `N#CCCSC1=NC(c2cccc([N+](=O)[O-])c2)=CC(c2cc3cc(Cl)ccc3nc2Cl)N1` (stereo unspecified) to `N#CCCSC1=NC(c2cccc(O)c2)=CC(c2cc3cc(Cl)ccc3nc2Cl)N1` (stereo unspecified), the MIC falls from 500 µg/mL (≈ 1030 µM) to 250 µg/mL (≈ 549 µM) (2-fold).

`COC1=CC(=O)C[C@@H](C)[C@]12Oc1c(Cl)c(OC)cc(OC)c1C2=O` [GRISEOFULVIN] was tested, and the MIC was 100 µg/mL (≈ 283 µM).

tested on: Candida albicans; assay: Antifungal activity against Candida albicans MTCC 227 by conventional broth microdilution method; type: functional; details: not given

`N#CCCSC1=NC(c2cccc(F)c2)=CC(c2cc3cc(Cl)ccc3nc2Cl)N1` (stereo unspecified) and `Cc1cccc(C2=CC(c3cc4cc(Cl)ccc4nc3Cl)NC(SCCC#N)=N2)c1` (stereo unspecified) are the same in MIC: 1000 µg/mL (≈ 2190 µM) for the first, 1000 µg/mL (≈ 2210 µM) for the second.

Going from `N#CCCSC1=NC(c2ccc(F)cc2)=CC(c2cc3cc(Cl)ccc3nc2Cl)N1` (stereo unspecified) to `N#CCCSC1=NC(c2ccc([N+](=O)[O-])cc2)=CC(c2cc3cc(Cl)ccc3nc2Cl)N1` (stereo unspecified), the MIC rises from 1000 µg/mL (≈ 2190 µM) to over 1000 µg/mL.

Compared with `N#CCCSC1=NC(c2cccc([N+](=O)[O-])c2)=CC(c2cc3cc(Cl)ccc3nc2Cl)N1` (stereo unspecified), `N#CCCSC1=NC(c2cccc(O)c2)=CC(c2cc3cc(Cl)ccc3nc2Cl)N1` (stereo unspecified) is lower in MIC: over 1000 µg/mL for the first, 500 µg/mL (≈ 1100 µM) for the second.

Molecule `COC1=CC(=O)C[C@@H](C)[C@]12Oc1c(Cl)c(OC)cc(OC)c1C2=O` [GRISEOFULVIN] has an MIC of 500 µg/mL (≈ 1420 µM).

tested on: Escherichia coli; assay: Antibacterial activity against Escherichia coli MTCC 443 by conventional broth microdilution method; type: functional; details: not given

Compared with `N#CCCSC1=NC(c2cccc(F)c2)=CC(c2cc3cc(Cl)ccc3nc2Cl)N1` (stereo unspecified), `Cc1cccc(C2=CC(c3cc4cc(Cl)ccc4nc3Cl)NC(SCCC#N)=N2)c1` (stereo unspecified) is 2-fold lower in MIC: 500 µg/mL (≈ 1090 µM) for the first, 250 µg/mL (≈ 551 µM) for the second.

Going from `N#CCCSC1=NC(c2ccc(F)cc2)=CC(c2cc3cc(Cl)ccc3nc2Cl)N1` (stereo unspecified) to `N#CCCSC1=NC(c2ccc([N+](=O)[O-])cc2)=CC(c2cc3cc(Cl)ccc3nc2Cl)N1` (stereo unspecified), the MIC falls from 1000 µg/mL (≈ 2190 µM) to 500 µg/mL (≈ 1030 µM) (2-fold).

Compared with `N#CCCSC1=NC(c2cccc([N+](=O)[O-])c2)=CC(c2cc3cc(Cl)ccc3nc2Cl)N1` (stereo unspecified), `N#CCCSC1=NC(c2cccc(O)c2)=CC(c2cc3cc(Cl)ccc3nc2Cl)N1` (stereo unspecified) is lower in MIC: over 1000 µg/mL for the first, 125 µg/mL (≈ 275 µM) for the second.

With `O=C(O)c1cn(C2CC2)c2cc(N3CCNCC3)c(F)cc2c1=O` [CIPROFLOXACIN] the MIC was 25 µg/mL (≈ 75.4 µM).

tested on: Pseudomonas aeruginosa; assay: Antibacterial activity against Pseudomonas aeruginosa MTCC 1688 by conventional broth microdilution method; type: functional; details: not given

Going from `N#CCCSC1=NC(c2cccc(F)c2)=CC(c2cc3cc(Cl)ccc3nc2Cl)N1` (stereo unspecified) to `Cc1cccc(C2=CC(c3cc4cc(Cl)ccc4nc3Cl)NC(SCCC#N)=N2)c1` (stereo unspecified), the MIC falls from 500 µg/mL (≈ 1090 µM) to 100 µg/mL (≈ 221 µM) (5-fold).

Going from `N#CCCSC1=NC(c2ccc(F)cc2)=CC(c2cc3cc(Cl)ccc3nc2Cl)N1` (stereo unspecified) to `N#CCCSC1=NC(c2ccc([N+](=O)[O-])cc2)=CC(c2cc3cc(Cl)ccc3nc2Cl)N1` (stereo unspecified), the MIC falls from over 1000 µg/mL to 1000 µg/mL (≈ 2060 µM).

Compared with `N#CCCSC1=NC(c2cccc([N+](=O)[O-])c2)=CC(c2cc3cc(Cl)ccc3nc2Cl)N1` (stereo unspecified), `N#CCCSC1=NC(c2cccc(O)c2)=CC(c2cc3cc(Cl)ccc3nc2Cl)N1` (stereo unspecified) is 4-fold lower in MIC: 1000 µg/mL (≈ 2060 µM) for the first, 250 µg/mL (≈ 549 µM) for the second.

tested on: Mycobacterium tuberculosis; assay: Antimycobacterial activity against Mycobacterium tuberculosis H37Rv by Lowenstein-Jensen slope method; type: functional; details: not given

In order of falling “inhibition (INH)” value:
1. N#CCCSC1=NC(c2cccc(O)c2)=CC(c2cc3cc(Cl)ccc3nc2Cl)N1 (stereo unspecified)  98%
2. Cc1cccc(C2=CC(c3cc4cc(Cl)ccc4nc3Cl)NC(SCCC#N)=N2)c1 (stereo unspecified)  81%
3. N#CCCSC1=NC(c2ccc(F)cc2)=CC(c2cc3cc(Cl)ccc3nc2Cl)N1 (stereo unspecified)  69%
4. N#CCCSC1=NC(c2ccc([N+](=O)[O-])cc2)=CC(c2cc3cc(Cl)ccc3nc2Cl)N1 (stereo unspecified)  56%
5. N#CCCSC1=NC(c2cccc(F)c2)=CC(c2cc3cc(Cl)ccc3nc2Cl)N1 (stereo unspecified)  41%
6. N#CCCSC1=NC(c2cccc([N+](=O)[O-])c2)=CC(c2cc3cc(Cl)ccc3nc2Cl)N1 (stereo unspecified)  38%

same assay, conditions: Mycobacterium tuberculosis, H37Rv

In order of falling MIC:
1. N#CCCSC1=NC(c2cccc(O)c2)=CC(c2cc3cc(Cl)ccc3nc2Cl)N1 (stereo unspecified)  100 µg/mL (≈ 220 µM)
2. NNC(=O)c1ccncc1 [ISONIAZID]  0.2 µg/mL (≈ 1.46 µM)

tested on: Streptococcus pyogenes; assay: Antibacterial activity against Streptococcus pyogenes MTCC 442 by conventional broth microdilution method; type: functional; details: not given

In order of rising MIC:
1. O=C(O)c1cn(C2CC2)c2cc(N3CCNCC3)c(F)cc2c1=O [CIPROFLOXACIN]  50 µg/mL (≈ 151 µM)
2. Cc1cccc(C2=CC(c3cc4cc(Cl)ccc4nc3Cl)NC(SCCC#N)=N2)c1 (stereo unspecified)  100 µg/mL (≈ 221 µM)
3. N#CCCSC1=NC(c2cccc(O)c2)=CC(c2cc3cc(Cl)ccc3nc2Cl)N1 (stereo unspecified)  100 µg/mL (≈ 220 µM)
4. N#CCCSC1=NC(c2cccc(F)c2)=CC(c2cc3cc(Cl)ccc3nc2Cl)N1 (stereo unspecified)  250 µg/mL (≈ 547 µM)
5. N#CCCSC1=NC(c2ccc(F)cc2)=CC(c2cc3cc(Cl)ccc3nc2Cl)N1 (stereo unspecified)  500 µg/mL (≈ 1090 µM)
6. N#CCCSC1=NC(c2ccc([N+](=O)[O-])cc2)=CC(c2cc3cc(Cl)ccc3nc2Cl)N1 (stereo unspecified)  500 µg/mL (≈ 1030 µM)
7. N#CCCSC1=NC(c2cccc([N+](=O)[O-])c2)=CC(c2cc3cc(Cl)ccc3nc2Cl)N1 (stereo unspecified)  1000 µg/mL (≈ 2060 µM)

tested on: Aspergillus clavatus; assay: Antifungal activity against Aspergillus clavatus MTCC 1323 by conventional broth microdilution method; type: functional; details: not given

`N#CCCSC1=NC(c2cccc(F)c2)=CC(c2cc3cc(Cl)ccc3nc2Cl)N1` (stereo unspecified) and `Cc1cccc(C2=CC(c3cc4cc(Cl)ccc4nc3Cl)NC(SCCC#N)=N2)c1` (stereo unspecified) are the same in MIC: 500 µg/mL (≈ 1090 µM) for the first, 500 µg/mL (≈ 1100 µM) for the second.

First: N#CCCSC1=NC(c2ccc(F)cc2)=CC(c2cc3cc(Cl)ccc3nc2Cl)N1 (stereo unspecified)
Second: N#CCCSC1=NC(c2ccc([N+](=O)[O-])cc2)=CC(c2cc3cc(Cl)ccc3nc2Cl)N1 (stereo unspecified)
The MIC of the first is 2-fold lower: 500 µg/mL (≈ 1090 µM) for the first, 1000 µg/mL (≈ 2060 µM) for the second.

Going from `N#CCCSC1=NC(c2cccc([N+](=O)[O-])c2)=CC(c2cc3cc(Cl)ccc3nc2Cl)N1` (stereo unspecified) to `N#CCCSC1=NC(c2cccc(O)c2)=CC(c2cc3cc(Cl)ccc3nc2Cl)N1` (stereo unspecified), the MIC falls from over 1000 µg/mL to 250 µg/mL (≈ 549 µM).

`COC1=CC(=O)C[C@@H](C)[C@]12Oc1c(Cl)c(OC)cc(OC)c1C2=O` [GRISEOFULVIN] gave an MIC of 100 µg/mL (≈ 283 µM).

tested on: Staphylococcus aureus; assay: Antibacterial activity against Staphylococcus aureus MTCC 96 by conventional broth microdilution method; type: functional; details: not given

In order of rising MIC:
1. O=C(O)c1cn(C2CC2)c2cc(N3CCNCC3)c(F)cc2c1=O [CIPROFLOXACIN]  50 µg/mL (≈ 151 µM)
2. Cc1cccc(C2=CC(c3cc4cc(Cl)ccc4nc3Cl)NC(SCCC#N)=N2)c1 (stereo unspecified)  100 µg/mL (≈ 221 µM)
3. N#CCCSC1=NC(c2cccc(O)c2)=CC(c2cc3cc(Cl)ccc3nc2Cl)N1 (stereo unspecified)  100 µg/mL (≈ 220 µM)
4. N#CCCSC1=NC(c2cccc(F)c2)=CC(c2cc3cc(Cl)ccc3nc2Cl)N1 (stereo unspecified)  125 µg/mL (≈ 273 µM)
5. N#CCCSC1=NC(c2ccc(F)cc2)=CC(c2cc3cc(Cl)ccc3nc2Cl)N1 (stereo unspecified)  500 µg/mL (≈ 1090 µM)
6. N#CCCSC1=NC(c2cccc([N+](=O)[O-])c2)=CC(c2cc3cc(Cl)ccc3nc2Cl)N1 (stereo unspecified)  500 µg/mL (≈ 1030 µM)
7. N#CCCSC1=NC(c2ccc([N+](=O)[O-])cc2)=CC(c2cc3cc(Cl)ccc3nc2Cl)N1 (stereo unspecified)  1000 µg/mL (≈ 2060 µM)
